The values below come from BindingDB's records for doi:10.1038/sj.bjp.0703341 (Friedrich-Schiller-University Jena, 2000).

Test [1] deals with 5-hydroxytryptamine receptor 2B (Rattus norvegicus, UniProt P30994).
The target of test [2] is T1, 5-hydroxytryptamine receptor 2C (Sus scrofa, UniProt G7ZKZ7).
T1 sequence (G7ZKZ7 whole entry): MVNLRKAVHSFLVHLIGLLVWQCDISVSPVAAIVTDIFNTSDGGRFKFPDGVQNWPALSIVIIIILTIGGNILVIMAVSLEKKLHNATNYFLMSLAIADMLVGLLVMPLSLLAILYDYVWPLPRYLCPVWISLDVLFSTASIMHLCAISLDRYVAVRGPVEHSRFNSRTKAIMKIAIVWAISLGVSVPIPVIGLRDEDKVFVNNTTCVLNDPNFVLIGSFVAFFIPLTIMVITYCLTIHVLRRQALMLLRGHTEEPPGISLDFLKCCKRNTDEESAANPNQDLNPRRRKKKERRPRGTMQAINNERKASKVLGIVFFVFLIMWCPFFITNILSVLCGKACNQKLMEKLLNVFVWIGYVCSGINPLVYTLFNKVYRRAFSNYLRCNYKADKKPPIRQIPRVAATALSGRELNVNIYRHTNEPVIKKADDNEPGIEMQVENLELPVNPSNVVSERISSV

The target of test [3] is 5-hydroxytryptamine receptor 6 (Rattus norvegicus, UniProt P31388).
Test [4] concerns the target 5-hydroxytryptamine receptor 7 (Rattus norvegicus, UniProt P32305).

Where “and” joins values, the source holds several entries; their conditions need not be identical. Equal values may be shown once.

Sequence of 5-hydroxytryptamine receptor 7 (P32305 whole entry): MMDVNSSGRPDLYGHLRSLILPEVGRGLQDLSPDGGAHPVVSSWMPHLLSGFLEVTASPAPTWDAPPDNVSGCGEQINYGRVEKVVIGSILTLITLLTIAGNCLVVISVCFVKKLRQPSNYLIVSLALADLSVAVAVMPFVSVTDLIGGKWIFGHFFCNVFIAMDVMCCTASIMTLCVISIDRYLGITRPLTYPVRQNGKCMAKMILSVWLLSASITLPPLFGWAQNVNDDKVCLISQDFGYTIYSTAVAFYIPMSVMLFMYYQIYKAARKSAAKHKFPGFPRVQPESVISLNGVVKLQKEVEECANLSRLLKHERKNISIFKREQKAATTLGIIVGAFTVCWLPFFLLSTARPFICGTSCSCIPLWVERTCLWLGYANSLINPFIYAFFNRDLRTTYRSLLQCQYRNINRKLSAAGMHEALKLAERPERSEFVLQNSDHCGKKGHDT
Sequence of 5-hydroxytryptamine receptor 6 (P31388 whole entry): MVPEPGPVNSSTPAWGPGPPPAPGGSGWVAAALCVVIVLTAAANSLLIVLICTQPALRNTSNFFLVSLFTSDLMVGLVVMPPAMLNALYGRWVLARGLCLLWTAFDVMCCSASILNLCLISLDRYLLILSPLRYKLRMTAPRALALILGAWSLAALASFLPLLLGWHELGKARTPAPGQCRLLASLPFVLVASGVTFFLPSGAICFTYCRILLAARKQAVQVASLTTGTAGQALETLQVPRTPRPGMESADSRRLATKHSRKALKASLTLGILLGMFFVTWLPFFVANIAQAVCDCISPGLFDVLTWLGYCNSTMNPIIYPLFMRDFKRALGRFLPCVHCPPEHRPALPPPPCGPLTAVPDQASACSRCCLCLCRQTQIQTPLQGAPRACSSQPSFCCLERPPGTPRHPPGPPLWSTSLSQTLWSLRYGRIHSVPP
Sequence of 5-hydroxytryptamine receptor 2B (P30994 whole entry): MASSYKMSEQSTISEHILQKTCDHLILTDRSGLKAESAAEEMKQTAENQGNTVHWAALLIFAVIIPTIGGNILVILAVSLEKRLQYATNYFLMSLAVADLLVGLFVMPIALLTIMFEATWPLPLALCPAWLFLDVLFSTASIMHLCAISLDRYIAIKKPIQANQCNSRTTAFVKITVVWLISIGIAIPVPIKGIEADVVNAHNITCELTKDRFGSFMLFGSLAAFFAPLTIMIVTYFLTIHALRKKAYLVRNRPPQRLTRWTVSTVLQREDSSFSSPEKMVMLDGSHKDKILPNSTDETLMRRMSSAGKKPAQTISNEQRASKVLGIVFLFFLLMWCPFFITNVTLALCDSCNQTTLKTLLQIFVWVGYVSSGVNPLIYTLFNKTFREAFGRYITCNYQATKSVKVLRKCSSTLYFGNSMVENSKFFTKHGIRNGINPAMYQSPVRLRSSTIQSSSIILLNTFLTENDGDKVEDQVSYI

As for `COC(=O)[C@@H]1[C@H]2C[C@H]3c4[nH]c5ccccc5c4CCN3C[C@@H]2CC[C@@H]1O` [yohimbic acid methyl ester], the Ki (in general, the dissociation constant of the complex between target and ligand, obtained from inhibition or displacement) in test [1] was 39.8 nM; in test [2], 1580 nM and > 10000 nM.

Take `O=C(c1ccc(F)cc1)C1CCN(CCn2c(=O)[nH]c3ccccc3c2=O)CC1` [3-(2-{4-[(4-fluorophenyl)carbonyl]piperidin-1-yl}ethyl)-1,2,3,4-tetrahydroquinazoline-2,4-dione]: the Ki in test [3] is over 10000 nM; in test [1] it was 3160 nM; in test [2] it was 100 nM.

With `CN1C[C@H](CNC(=O)OCc2ccccc2)C[C@@H]2c3cccc4c3c(cn4C)C[C@H]21` [METERGOLINE], the figures for the Ki in test [3] and in test [2] were 31.6 nM and 0.63 nM, respectively.

As to `CN(C)CC/C=C1\c2ccccc2Sc2ccc(Cl)cc21`, the results for the Ki in test [4] and in test [3] were 5.01 nM and 3.16 nM, respectively.

Take `CN(C)CCC=C1c2ccccc2CCc2ccccc21`: the Ki in test [4] worked out at 126 nM; in test [3], 63.1 nM.

With `CN1C[C@@H](NS(=O)(=O)N(C)C)C[C@@H]2c3cccc4c3c(cn4C)C[C@H]21` [MESULERGINE], the Ki was determined as 6.31 nM in test [4], 1580 nM in test [3] and 1.58 nM in test [2].

On to `Clc1ccc2c(c1)C(N1CCNCC1)=Nc1ccccc1O2`, for which, in test [3], the Ki came out at 6.31 nM.

`CN1CCC(=C2c3ccccc3CCc3sccc32)CC1` [NSC_27400]: the affinity in test [2] corresponds to a Ki of 7.94 nM.

In turn, `O=C(CCCN1CCC2(CC1)C(=O)NCN2c1ccccc1)c1ccc(F)cc1` [8-[4-(4-fluorophenyl)-4-oxidanylidene-butyl]-1-phenyl-1,3,8-triazaspiro[4.5]decan-4-one] displayed an inhibition constant (Ki) in test [2] of 1260 nM.

In the case of `CC(O)C(C)OC(=O)C1CC2c3cccc4c3c(cn4C(C)C)CC2N(C)C1` (stereo not drawn) [CAS_60634-51-7], the inhibition constant (Ki) in test [1] was determined as 6.31 nM; in test [2], 7.94 nM.

Consider `Cc1nc2sccn2c(=O)c1CCN1CCC(=C(c2ccc(F)cc2)c2ccc(F)cc2)CC1`, for which the Ki in test [3] was determined as 39.8 nM; in test [2], 2.51 nM.

For the molecule `CSc1ccc2c(c1)C(N1CCN(C)CC1)Cc1ccccc1S2` (stereo not drawn) [methanesulfonic acid;1-methyl-4-(3-methylsulfanyl-5,6-dihydrobenzo[b][1]benzothiepin-5-yl)piperazine], in test [2], the Ki worked out at 25.1 nM.

In the case of `CN1CCN(C2=Nc3ccccc3Oc3ccc(Cl)cc32)CC1` [13-chloro-10-(4-methylpiperazin-1-yl)-2-oxa-9-azatricyclo[9.4.0.0^{3,8}]pentadeca-1(11),3,5,7,9,12,14-heptaene], the Ki in test [4] amounted to 39.8 nM; in test [3] it was 15.9 nM.

On to `CC[C@@H](CO)NC(=O)[C@@H]1C=C2c3cccc4c3c(cn4C)C[C@H]2N(C)C1`, for which the Ki is 398 nM in test [3] and 2.51 nM in test [2].

Regarding `OCCN1CCN(CCCN2c3ccccc3Sc3ccc(Cl)cc32)CC1` [4-[3-(2-chlorophenothiazin-10-yl)propyl]-1-piperazineethanol], the Ki in test [4] worked out at 25.1 nM; in test [3], 15.9 nM.
